# Results taken from ChEMBL document CHEMBL5108016, “Design, synthesis and neurite outgrowth activity of novel ganglioside GM1 derivatives by remodeling of the fatty acid moiety” (Eur J Med Chem, 2022).
# The source made the active and inactive calls. The rule behind the calls is not given here.
# How the values were obtained:
# [1] = Cytotoxicity against mouse Neuro2a cells assessed as inhibition of cell growth incubated for 24 hrs by MTT assay; type: toxicity, cell-based, N2a
# N2a [2] = experiment: Induction of neurite outgrowth in mouse Neuro2a cells assessed as increase in GAP43 protein expression at 25 uM incubated for 24 hrs by immunoblotting analysis; type: functional, cell-based
# N2a [3] = experiment: Induction of neurite outgrowth in mouse Neuro2a cells assessed as increase in percentage of neurite-bearing cells at 25 uM incubated for 24 hrs; type: functional, cell-based
# N2a [4] = experiment: Induction of neurite outgrowth in mouse Neuro2a cells assessed as increase in neurite-number per cells at 25 uM incubated for 24 hrs; type: functional, cell-based
# N2a [5] = experiment: Induction of neurite outgrowth in mouse Neuro2a cells assessed as increase in neurite-length per cells at 25 uM incubated for 24 hrs; type: functional, cell-based
# Cortical neurone [6] = experiment: Induction of neurite outgrowth in C57BL/6 mouse Primary cortical neuron assessed as increase in total neurite length at 25 uM incubated for 24 hrs (reference value: 58.3 +/- 8.68 […]); type: functional
# Cortical neurone [7] = experiment: Induction of neurite outgrowth in C57BL/6 mouse Primary cortical neuron assessed as change in neurite number per cell at 25 uM incubated for 24 hrs; type: functional, cell-based
# N2a [8] = experiment: Upregulation of LSS gene expression in mouse Neuro2a cells by STRING analysis; type: functional, cell-based
# N2a [9] = experiment: Upregulation of HMGCS1 gene expression in mouse Neuro2a cells by STRING analysis; type: functional, cell-based
# N2a [10] = experiment: Upregulation of MVD gene expression in mouse Neuro2a cells by STRING analysis; type: functional, cell-based
# N2a [11] = experiment: Upregulation of NSDHL gene expression in mouse Neuro2a cells by STRING analysis; type: functional, cell-based
# N2a [12] = experiment: Upregulation of FDFT1 gene expression in mouse Neuro2a cells by STRING analysis; type: functional, cell-based
# N2a [13] = experiment: Upregulation of ACAT2 gene expression in mouse Neuro2a cells by STRING analysis; type: functional, cell-based
# N2a [14] = experiment: Upregulation of FDPS gene expression in mouse Neuro2a cells by STRING analysis; type: functional, cell-based
# N2a [15] = experiment: Upregulation of CYP51 gene expression in mouse Neuro2a cells by STRING analysis; type: functional, cell-based
# N2a [16] = experiment: Upregulation of SREBP2 gene expression in mouse Neuro2a cells by STRING analysis; type: functional, cell-based
# N2a [17] = experiment: Upregulation of SREBP2 mRNA expression in mouse Neuro2a cells by qRT-PCR analysis; type: functional, cell-based
# N2a [18] = experiment: Upregulation of FDF1 mRNA expression in mouse Neuro2a cells by qRT-PCR analysis; type: functional, cell-based
# N2a [19] = experiment: Upregulation of DHCR7 mRNA expression in mouse Neuro2a cells by qRT-PCR analysis; type: functional, cell-based
# N2a [20] = experiment: Upregulation of CYP51 mRNA expression in mouse Neuro2a cells by qRT-PCR analysis; type: functional, cell-based
# N2a [21] = experiment: Upregulation of MVK mRNA expression in mouse Neuro2a cells by qRT-PCR analysis; type: functional, cell-based
# N2a [22] = experiment: Upregulation of HMGCS mRNA expression in mouse Neuro2a cells by qRT-PCR analysis; type: functional, cell-based
# N2a [23] = experiment: Upregulation of HMGCR mRNA expression in mouse Neuro2a cells by qRT-PCR analysis; type: functional, cell-based
# N2a [24] = experiment: Upregulation of FDPS mRNA expression in mouse Neuro2a cells by qRT-PCR analysis; type: functional, cell-based
# N2a [25] = experiment: Upregulation of NSDHL mRNA expression in mouse Neuro2a cells by qRT-PCR analysis; type: functional, cell-based
# N2a [26] = experiment: Upregulation of MVD mRNA expression in mouse Neuro2a cells by qRT-PCR analysis; type: functional, cell-based
# N2a [27] = experiment: Upregulation of LSS mRNA expression in mouse Neuro2a cells by qRT-PCR analysis; type: functional, cell-based
# N2a [28] = experiment: Upregulation of ID11 mRNA expression in mouse Neuro2a cells by qRT-PCR analysis; type: functional, cell-based
# N2a [29] = experiment: Upregulation of SQLE mRNA expression in mouse Neuro2a cells by qRT-PCR analysis; type: functional, cell-based
# N2a [30] = experiment: Upregulation of PMVK mRNA expression in mouse Neuro2a cells by qRT-PCR analysis; type: functional, cell-based
# N2a [31] = experiment: Upregulation of DHCR7 protein expression in mouse Neuro2a cells by parallel reaction monitoring analysis; type: functional, cell-based
# N2a [32] = experiment: Upregulation of HMGCR protein expression in mouse Neuro2a cells by parallel reaction monitoring analysis; type: functional, cell-based
# N2a [33] = experiment: Upregulation of NSDHL protein expression in mouse Neuro2a cells by parallel reaction monitoring analysis; type: functional, cell-based
# N2a [34] = experiment: Upregulation of CYP51 protein expression in mouse Neuro2a cells by parallel reaction monitoring analysis; type: functional, cell-based
# N2a [35] = experiment: Upregulation of FDPS protein expression in mouse Neuro2a cells by parallel reaction monitoring analysis; type: functional, cell-based
# N2a [36] = experiment: Upregulation of LSS protein expression in mouse Neuro2a cells by parallel reaction monitoring analysis; type: functional, cell-based
# N2a [37] = experiment: Upregulation of HMGCS1 protein expression in mouse Neuro2a cells by parallel reaction monitoring analysis; type: functional, cell-based
# N2a [38] = experiment: Induction of cholesterol biosynthesis in mouse Neuro2a cells assessed as increase in total cholesterol level; type: functional, cell-based
# N2a [39] = experiment: Induction of cholesterol biosynthesis in mouse Neuro2a cells assessed as increase in total cholesteryl level; type: functional, cell-based
# [40] = biological target: T1, Sterol regulatory element-binding protein 2 (Mus musculus) (UniProt Q3U1N2); experiment: Activation of SREBP2 in mouse Neuro2a cells assessed as increase in mTOR protein expression by immunoblot analysis; type: cell-based; conditions: filed as activator
# T1 sequence (whole entry): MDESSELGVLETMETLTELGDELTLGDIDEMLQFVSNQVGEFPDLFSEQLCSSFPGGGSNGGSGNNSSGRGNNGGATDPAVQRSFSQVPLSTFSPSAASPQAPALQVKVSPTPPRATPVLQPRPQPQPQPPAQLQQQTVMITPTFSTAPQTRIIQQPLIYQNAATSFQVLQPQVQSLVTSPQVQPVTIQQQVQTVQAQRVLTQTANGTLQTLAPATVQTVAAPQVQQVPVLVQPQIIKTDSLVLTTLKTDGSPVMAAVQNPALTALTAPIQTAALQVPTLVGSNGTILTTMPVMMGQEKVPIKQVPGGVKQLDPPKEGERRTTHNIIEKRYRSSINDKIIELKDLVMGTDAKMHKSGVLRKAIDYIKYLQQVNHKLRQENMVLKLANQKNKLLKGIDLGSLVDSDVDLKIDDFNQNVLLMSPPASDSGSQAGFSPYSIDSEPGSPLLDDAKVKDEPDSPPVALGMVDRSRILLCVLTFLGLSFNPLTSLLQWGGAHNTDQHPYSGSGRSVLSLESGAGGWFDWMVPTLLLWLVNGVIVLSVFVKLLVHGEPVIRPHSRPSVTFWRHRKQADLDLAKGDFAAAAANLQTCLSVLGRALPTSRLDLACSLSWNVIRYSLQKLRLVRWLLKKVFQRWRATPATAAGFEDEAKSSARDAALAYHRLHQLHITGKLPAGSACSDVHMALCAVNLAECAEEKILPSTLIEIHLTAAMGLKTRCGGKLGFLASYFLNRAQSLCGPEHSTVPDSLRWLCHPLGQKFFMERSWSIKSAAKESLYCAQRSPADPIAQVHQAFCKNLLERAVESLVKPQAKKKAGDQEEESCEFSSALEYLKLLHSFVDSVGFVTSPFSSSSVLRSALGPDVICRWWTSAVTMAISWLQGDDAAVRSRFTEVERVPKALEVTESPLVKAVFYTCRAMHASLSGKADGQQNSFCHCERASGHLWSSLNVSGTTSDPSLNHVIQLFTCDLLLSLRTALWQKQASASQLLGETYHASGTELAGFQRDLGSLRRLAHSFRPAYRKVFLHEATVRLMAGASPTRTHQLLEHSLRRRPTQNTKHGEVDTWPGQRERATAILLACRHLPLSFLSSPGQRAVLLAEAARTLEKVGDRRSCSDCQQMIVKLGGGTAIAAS
# [41] = biological target: T1, Sterol regulatory element-binding protein 2 (Mus musculus); experiment: Activation of SREBP2 in mouse Neuro2a cells assessed as increase in ERBB4 protein expression by immunoblot analysis; type: cell-based; conditions: filed as activator
# [42] = biological target: T1, Sterol regulatory element-binding protein 2 (Mus musculus); experiment: Activation of SREBP2 in mouse Neuro2a cells assessed as increase in phosphorylated ERBB4 protein expression by immunoblot analysis; type: cell-based; conditions: filed as activator
# N2a [43] = experiment: Internalization of ERBB4 in mouse Neuro2a cells assessed as retention of ERBB4 level in lipids raft of cells by immunoblot analysis; type: functional, cell-based
# N2a [44] = experiment: Upregulation of phosphorylated TrkA expression in mouse Neuro2a cells by immunoblot analysis; type: functional, cell-based
smiles,measurement,setting,value
CCCCCCCCCCCCCCC/C=C/[C@@H](O)[C@H](CO[C@@H]1O[C@H](CO)[C@@H](O[C@@H]2O[C@H](CO)[C@H](O[C@@H]3O[C@H](CO)[C@H](O)[C@H](O[C@@H]4O[C@H](CO)[C@H](O)[C@H](O)[C@H]4O)[C@H]3NC(C)=O)[C@H](O[C@]3(C(=O)O)C[C@H](O)[C@@H](NC(C)=O)[C@@H]([C@@H](O)[C@H](O)CO)O3)[C@H]2O)[C@H](O)[C@H]1O)NC(=O)CCCCCCCCCCCCCCCCC,IC50 at 24 h,[1],> 200 µM
CCCCCCCC/C=C/CCCCCCCC(=O)N[C@@H](CO[C@@H]1O[C@H](CO)[C@@H](O[C@@H]2O[C@H](CO)[C@H](O[C@@H]3O[C@H](CO)[C@H](O)[C@H](O[C@@H]4O[C@H](CO)[C@H](O)[C@H](O)[C@H]4O)[C@H]3NC(C)=O)[C@H](O[C@]3(C(=O)O)C[C@H](O)[C@@H](NC(C)=O)[C@@H]([C@@H](O)[C@H](O)CO)O3)[C@H]2O)[C@H](O)[C@H]1O)[C@H](O)/C=C/CCCCCCCCCCCCCCC,IC50 at 24 h,[1],> 200 µM
same,Activity,N2a [2],Active
CCCCCC/C=C\CCCCCCCC(=O)N[C@@H](CO[C@@H]1O[C@H](CO)[C@@H](O[C@@H]2O[C@H](CO)[C@H](O[C@@H]3O[C@H](CO)[C@H](O)[C@H](O[C@@H]4O[C@H](CO)[C@H](O)[C@H](O)[C@H]4O)[C@H]3NC(C)=O)[C@H](O[C@]3(C(=O)O)C[C@H](O)[C@@H](NC(C)=O)[C@@H]([C@@H](O)[C@H](O)CO)O3)[C@H]2O)[C@H](O)[C@H]1O)[C@H](O)/C=C/CCCCCCCCCCCCC,Activity,N2a [3],Active
same,Activity,N2a [4],Active
same,Activity,N2a [5],Active
CCCCCCCCCCCCC/C=C/[C@@H](O)[C@H](CO[C@@H]1O[C@H](CO)[C@@H](O[C@@H]2O[C@H](CO)[C@H](O[C@@H]3O[C@H](CO)[C@H](O)[C@H](O[C@@H]4O[C@H](CO)[C@H](O)[C@H](O)[C@H]4O)[C@H]3NC(C)=O)[C@H](O[C@]3(C(=O)O)C[C@H](O)[C@@H](NC(C)=O)[C@@H]([C@@H](O)[C@H](O)CO)O3)[C@H]2O)[C@H](O)[C@H]1O)NC(=O)CCCCCCCCCCCCCCCCC,IC50 at 24 h,[1],> 200 µM
same,Activity,N2a [2],Active
same,Activity,Cortical neurone [6],80.1 um
same,Activity,Cortical neurone [7],Active
same,Activity,N2a [8],Active
same,Activity,N2a [9],Active
same,Activity,N2a [10],Active
same,Activity,N2a [11],Active
same,Activity,N2a [12],Active
same,Activity,N2a [13],Active
same,Activity,N2a [14],Active
same,Activity,N2a [15],Active
same,Activity,N2a [16],Active
same,Activity,N2a [17],Active
same,Activity,N2a [18],Active
same,Activity,N2a [19],Active
same,Activity,N2a [20],Active
same,Activity,N2a [21],Active
same,Activity,N2a [22],Active
same,Activity,N2a [23],Active
same,Activity,N2a [24],Active
same,Activity,N2a [25],Active
same,Activity,N2a [26],Active
same,Activity,N2a [27],Active
same,Activity,N2a [28],Active
same,Activity,N2a [29],Active
same,Activity,N2a [30],Active
same,Activity,N2a [31],Active
same,Activity,N2a [32],Active
same,Activity,N2a [33],Active
same,Activity,N2a [34],Active
same,Activity,N2a [35],Active
same,Activity,N2a [36],Active
same,Activity,N2a [37],Active
same,Activity,N2a [38],Active
same,Activity,N2a [39],Active
same,Activity,[40],Active
same,Activity,[41],Active
same,Activity,[42],Active
same,Activity,N2a [43],Active
same,Activity,N2a [44],Active
